According to paper PMC5384453, “A multi-functional PEGylated gold(III) compound: potent anti-cancer properties and self-assembly into nanostructures for drug co-delivery” (Chemical Science, 2016):

Experiments:
Assay in all cases: In vitro cytotoxicity, MTT assay
[1] = test system: CCD-19Lu; format: cell-based, human; details: 72 h incubation
Protocol: (§1) In vitro cytotoxicity assays. HeLa, NCI-H460, HCT116, A2780, A2780cis and
(§2) cells), respectively, were seeded in 96-well plates for 24 h. The cells were then treated with a serial concentration of gold(III) complexes and incubated at 37 °C under a 5% CO2 atmosphere for 72 h. For nanostructures of 1, 2 and NC1, they were dissolved in
(§3) cisplatin were dissolved in culture medium-DMSO solution mixture (99:1, v/v).
(§4) After incubation for 72 h, MTT in PBS solution (5 mg/mL, 10 μL) was added to each well. The plates were incubated at 37 °C under a 5% CO2 atmosphere for another 4 h, and the cells were lysed by the addition of SDS solution (10%, w/w) with 0.01 M HCl (100 μL). After incubation in dark at 37 °C overnight, the cell viability after treatment was determined by a microtitre plate reader monitoring at the absorbance at 590 nm,
(§5) which reflected the amount of blue formazan formed. IC50 values were then determined by CompuSyn S6 from three independent measurements.

[2] = test system: MIHA; format: cell-based; details: MTT assay, 72 h incubation, read-out: IC50
Protocol: as §1, §2, §3, §4, §5

[3] = test system: A2780cis; format: cell-based, human
Protocol: as §1, §2, §3, §4, §5

[4] = test system: HCT116; format: cell-based, human
Protocol: as §1, §2, §3, §4, §5

[5] = test system: A2780; format: cell-based, human
Protocol: as §1, §2, §3, §4, §5

[6] = test system: NCM460; format: cell-based, human; details: 72 h incubation
Protocol: as §1, §2, §3, §4, §5

[7] = test system: HeLa; format: cell-based, human
Protocol: as §1, §2, §3, §4, §5

[8] = test system: A2780adr; format: cell-based, human
Protocol: as §1, §2, §3, §4, §5

[9] = test system: NCI-H460; format: cell-based, human
Protocol: as §1, §2, §3, §4, §5

SMILES: C1=Cc2nc1c(-c1ccccc1)c1ccc([n-]1)c(-c1ccccc1)c1nc(c(-c3ccccc3)c3ccc([n-]3)c2-c2ccccc2)C=C1.[Au+3].[Cl-] [Au1a, [Au(TPP)]Cl, reference compound]
- IC50 [1]: 230 ± 40 nM
- IC50 [2]: 400 ± 70 nM
- IC50 ([3]; A2780cis, MTT assay, 72 h incubation): 180 ± 10 nM
- Resistance found in A2780cis ([3]; IC50 of A2780cis cells / IC50 of A2780 cells): 1.49
- Toxicity toward cancer cells compared to that toward CCD-19Lu cells, A2780cis ([3]; IC50 of CCD-19Lu cells / IC50 of A2780cis): 1.3
- Toxicity toward cancer cells compared to that toward NCM460 cells, A2780cis ([3]; IC50 of NCM460 cells / IC50 of A2780cis): 0.4
- IC50 ([4]; HCT116, MTT assay, 72 h incubation): 90 ± 20 nM
- Toxicity toward cancer cells compared to that toward CCD-19Lu cells, HCT-116 ([4]; IC50 of CCD-19Lu cells / IC50 of HCT-116): 2.6
- Toxicity toward cancer cells compared to that toward MIHA cells, HCT-116 ([4]; IC50 of MIHA cells / IC50 of HCT-116): 4.4
- Toxicity toward cancer cells compared to that toward NCM460 cells, HCT-116 ([4]; IC50 of NCM460 cells / IC50 of HCT-116): 0.8
- IC50 ([5]; A2780, MTT assay, 72 h incubation): 120 ± 20 nM
- Toxicity toward cancer cells compared to that toward CCD-19Lu cells, A2780 ([5]; IC50 of CCD-19Lu cells / IC50 of A2780): 1.9
- Toxicity toward cancer cells compared to that toward MIHA cells, A2780 ([5]; IC50 of MIHA cells / IC50 of A2780): 3.3
- Toxicity toward cancer cells compared to that toward NCM460 cells, A2780 ([5]; IC50 of NCM460 cells / IC50 of A2780): 0.6
- IC50 [6]: 70 ± 10 nM
- IC50 ([7]; HeLa, MTT assay, 72 h incubation, read-out: IC50): 660 ± 40 nM
- Toxicity toward cancer cells compared to that toward CCD-19Lu cells, HeLa ([7]; IC50 of CCD-19Lu cells / IC50 of HeLa): 0.3
- Toxicity toward cancer cells compared to that toward MIHA cells, HeLa ([7]; IC50 of MIHA cells / IC50 of HeLa): 0.6
- Toxicity toward cancer cells compared to that toward NCM460 cells, HeLa ([7]; IC50 of NCM460 cells / IC50 of HeLa): 0.1
- IC50 ([8]; A2780adr, MTT assay, 72 h incubation, read-out: IC50): 1130 ± 150 nM
- Resistance found in A2780adr ([8]; IC50 of A2780adr cells / IC50 of A2780 cells): 9.09
- Toxicity toward cancer cells compared to that toward CCD-19Lu cells, A2780adr ([8]; IC50 of CCD-19Lu cells / IC50 of A2780adr): 0.2
- Toxicity toward cancer cells compared to that toward MIHA cells, A2780adr ([8]; IC50 of MIHA cells / IC50 of A2780adr): 0.4
- Toxicity toward cancer cells compared to that toward NCM460 cells, A2780adr ([8]; IC50 of NCM460 cells / IC50 of A2780adr): 0.06
- Toxicity toward cancer cells compared to that toward CCD-19Lu cells, NCI-H460 ([9]; IC50 of CCD-19Lu cells / IC50 of NCI-H460): 1.0
- Toxicity toward cancer cells compared to that toward MIHA cells, NCI-H460 ([9]; IC50 of MIHA cells / IC50 of NCI-H460): 1.7
- Toxicity toward cancer cells compared to that toward NCM460 cells, NCI-H460 ([9]; IC50 of NCM460 cells / IC50 of NCI-H460): 0.3
- IC50 ([9]; NCI-H460, MTT assay, 72 h incubation): 230 ± 10 nM
